Assay results taken from patent publication US10669258B2, “3-sulfonyl-5-aminopyridine-2,4-diol APJ agonists” (BRISTOL-MYERS SQUIBB COMPANY, priority 2016, dated 2020).
Read-outs that look alike come from different tables or passages of the source.

Molecular target: T1, human APJ receptor (Homo sapiens, UniProt P35414)
T1 construct: expressed in transfected cells; host or cells: HEK293
T1 sequence (P35414 1-380): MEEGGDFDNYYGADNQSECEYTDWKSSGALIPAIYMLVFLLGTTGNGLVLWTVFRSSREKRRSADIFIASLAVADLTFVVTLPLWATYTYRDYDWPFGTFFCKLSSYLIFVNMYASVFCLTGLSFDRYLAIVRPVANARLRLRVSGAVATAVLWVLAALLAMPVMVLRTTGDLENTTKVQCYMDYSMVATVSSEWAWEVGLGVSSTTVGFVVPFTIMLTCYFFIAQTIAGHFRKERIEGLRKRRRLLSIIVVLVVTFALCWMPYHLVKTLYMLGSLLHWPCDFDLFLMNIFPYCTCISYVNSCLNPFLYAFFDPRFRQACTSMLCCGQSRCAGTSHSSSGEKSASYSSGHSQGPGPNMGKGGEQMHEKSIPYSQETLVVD
Assay: Intracellular cAMP accumulation assay (APJ hcAMP, HTRF)
Type: cell-based
How it was run: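 Inhibition of forskolin (2 μM)-driven cAMP, with […], measured by HTRF after 30 min room-temperature compound exposure of stably transfected HEK293 cells. cAMP read from a standard curve; variable-slope fit gives EC50, and maximal inhibition is normalised to (Pyr1)apelin-13 as 100%.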

[1] = HEK293 cells stably expressing human APJ receptor; inhibition of forskolin-mediated cAMP production; Table 1; read-out: hAPJ cAMP EC50 Potency range

| Structure (SMILES) | EC50 [1] [nM] | EC50 (read-out: hAPJ cAMP EC50 Potency range; HEK293 cells stably expressing human APJ receptor; inhibition of forskolin-mediated cAMP production; Table 1) [nM] |
| --- | --- | --- |
| CCCCc1nc(O)c(S(=O)(=O)c2ccc(-c3ccc(F)nc3C)cc2)c(O)c1N1CCCOc2ccccc21 [Example 115, 6-butyl-5-(3,4-dihydrobenzo[b][1,4]oxazepin-5(2H)-yl)-3-((4-(6-fluoro-2-methylpyridin-3-yl)phenyl)sulfonyl)pyridine-2,4-diol] | 10 to 100 |  |
| CCCCc1nc(O)c(S(=O)(=O)c2ccc(-c3ccc(F)nc3C)cc2)c(O)c1N(C)c1cccc(C#N)c1 [Example 117, 3-((2-butyl-5-((4-(6-fluoro-2-methylpyridin-3-yl)phenyl)sulfonyl)-4,6-dihydroxypyridin-3-yl)(methyl)amino)benzonitrile] | 0.01 to 10 |  |
| CCCCc1nc(O)c(S(=O)(=O)c2ccc(-c3ccc(F)nc3C)cc2)c(O)c1N(C)c1ccccc1F [Example 118, 6-butyl-3-((4-(6-fluoro-2-methylpyridin-3-yl)phenyl)sulfonyl)-5-((2-fluorophenyl)(methyl)amino)pyridine-2,4-diol] | 0.01 to 10 |  |
| CCCCc1nc(O)c(S(=O)(=O)c2ccc(-c3cccnc3C)cc2)c(O)c1N(C)c1cccc(C#N)c1 [Example 119, 3-((2-butyl-4,6-dihydroxy-5-((4-(2-methylpyridin-3-yl)phenyl)sulfonyl)pyridin-3-yl)(methyl)amino)benzonitrile] | 0.01 to 10 |  |
| CCN(c1ccccc1)c1c(-c2cccc(C)c2)nc(O)c(S(=O)(=O)c2ccc(-c3ccncc3C)cc2)c1O [Example 120, 5-(ethyl(phenyl)amino)-3-((4-(3-methylpyridin-4-yl)phenyl)sulfonyl)-6-(m-tolyl)pyridine-2,4-diol] | 0.01 to 10 |  |
| CCN(c1ccccc1)c1c(-c2cccc(C)c2)nc(O)c(S(=O)(=O)c2ccc(-c3ccnc(F)c3C)cc2)c1O [Example 122, 5-(ethyl(phenyl)amino)-3-((4-(2-fluoro-3-methylpyridin-4-yl)phenyl)sulfonyl)-6-(m-tolyl)pyridine-2,4-diol] | 0.01 to 10 |  |
| CCCCc1nc(O)c(S(=O)(=O)c2ccc(-c3cccnc3C)cc2)c(O)c1N1CCCOc2ccccc21 [Example 123, 6-butyl-5-(3,4-dihydrobenzo[b][1,4]oxazepin-5(2H)-yl)-3-((4-(2-methylpyridin-3-yl)phenyl)sulfonyl)pyridine-2,4-diol] | 10 to 100 |  |
| CCCCc1nc(O)c(S(=O)(=O)c2ccc(-c3cccnc3C)cc2)c(O)c1N(C)c1ccccc1F [Example 124, 6-butyl-5-((2-fluorophenyl)(methyl)amino)-3-((4-(2-methylpyridin-3-yl)phenyl)sulfonyl)pyridine-2,4-diol] | 0.01 to 10 |  |
| CCCCc1nc(O)c(S(=O)(=O)c2ccc(-c3ccnc(F)c3C)cc2)c(O)c1N(C)c1ccccc1F [Example 125, 6-butyl-3-((4-(2-fluoro-3-methylpyridin-4-yl)phenyl)sulfonyl)-5-((2-fluorophenyl)(methyl)amino)pyridine-2,4-diol] | 0.01 to 10 |  |
| CCCCc1nc(O)c(S(=O)(=O)c2ccc(-c3ccc(F)nc3C)cc2)c(O)c1N1CCCCC1c1ccccc1 (stereo not shown) [Example 126, 6-butyl-3-((4-(6-fluoro-2-methylpyridin-3-yl)phenyl)sulfonyl)-5-(2-phenylpiperidin-1-yl)pyridine-2,4-diol] | 10 to 100 |  |
| CCCCc1nc(O)c(S(=O)(=O)c2ccc(-c3ccnc(F)c3C)cc2)c(O)c1N1CCCOc2ccccc21 [Example 127, 6-butyl-5-(3,4-dihydrobenzo[b][1,4]oxazepin-5(2H)-yl)-3-((4-(2-fluoro-3-methylpyridin-4-yl)phenyl)sulfonyl)pyridine-2,4-diol] | 0.01 to 10 |  |
| CCCCc1nc(O)c(S(=O)(=O)c2ccc(-c3ccnc(F)c3C)cc2)c(O)c1N1CCCCC1c1ccccc1 (stereo not shown) [Example 128, 6-butyl-3-((4-(2-fluoro-3-methylpyridin-4-yl)phenyl)sulfonyl)-5-(2-phenylpiperidin-1-yl)pyridine-2,4-diol] | 10 to 100 |  |
| CCCCc1nc(O)c(S(=O)(=O)c2ccc(-c3ccncc3C)cc2)c(O)c1N1CCCOc2ccccc21 [Example 129, 6-butyl-5-(3,4-dihydrobenzo[b][1,4]oxazepin-5(2H)-yl)-3-((4-(3-methylpyridin-4-yl)phenyl)sulfonyl)pyridine-2,4-diol] | 0.01 to 10 |  |
| CCN(c1ccccc1)c1c(-c2cccc(C)c2)nc(O)c(S(=O)(=O)c2ccc(Br)cc2)c1O [Example 131, 3-((4-bromophenyl)sulfonyl)-5-(ethyl(phenyl)amino)-6-(m-tolyl)pyridine-2,4-diol] | 10 to 100 |  |
| CCN(c1ccccc1)c1c(-c2cccc(C)c2)nc(O)c(C(=O)N2CCC(c3ncc(F)cc3F)C2)c1O (stereo not shown) [Example 132, (3-(3,5-difluoropyridin-2-yl)pyrrolidin-1-yl)(5-(ethyl(phenyl)amino)-2,4-dihydroxy-6-(m-tolyl)pyridin-3-yl)methanone] |  | 0.01 to 10 |
| CCCCc1nc(O)c(S(=O)(=O)c2ccc(-c3ccncc3C)cc2)c(O)c1N(CC)c1cc(C)cc(C)c1 [Example 133, 6-butyl-5-((3,5-dimethylphenyl)(ethyl)amino)-3-((4-(3-methylpyridin-4-yl)phenyl)sulfonyl)pyridine-2,4-diol] | 0.01 to 10 |  |
| CCCCc1nc(O)c(S(=O)(=O)c2ccc(Br)cc2)c(O)c1N(CC)c1cc(C)cc(C)c1 [Example 134, 3-((4-bromophenyl)sulfonyl)-6-butyl-5-((3,5-dimethylphenyl)(ethyl)amino)pyridine-2,4-diol] | 10 to 100 |  |
| CCCCc1nc(O)c(S(=O)(=O)c2ccc(-c3ccc(F)nc3C)cc2)c(O)c1N(CC)c1cc(C)cc(C)c1 [Example 135, 6-butyl-5-((3,5-dimethylphenyl)(ethyl)amino)-3-((4-(6-fluoro-2-methylpyridin-3-yl)phenyl)sulfonyl)pyridine-2,4-diol] | 0.01 to 10 |  |
| CCCCc1nc(O)c(S(=O)(=O)c2ccc(-c3ccnc(F)c3C)cc2)c(O)c1N(CC)c1cc(C)cc(C)c1 [Example 136, 6-butyl-5-((3,5-dimethylphenyl)(ethyl)amino)-3-((4-(2-fluoro-3-methylpyridin-4-yl)phenyl)sulfonyl)pyridine-2,4-diol] | 0.01 to 10 |  |

The next lines start with results.

| EC50 [1] [nM] | Structure (SMILES) | EC50 (read-out: hAPJ cAMP EC50 Potency range; HEK293 cells stably expressing human APJ receptor; inhibition of forskolin-mediated cAMP production; Table 1) [nM] |
| --- | --- | --- |
| 0.01 to 10 | CCCCc1nc(O)c(S(=O)(=O)c2ccc(-c3ccccc3C(=O)NC)cc2)c(O)c1N(C)c1cccc(C#N)c1 [Example 137, 4′-((6-butyl-5-((3-cyanophenyl)(methyl)amino)-2,4-dihydroxypyridin-3-yl)sulfonyl)-N-methyl-[1,1′-biphenyl]-2-carboxamide] |  |
| 0.01 to 10 | CCCCc1nc(O)c(S(=O)(=O)c2ccc(-c3ccccc3C(N)=O)cc2)c(O)c1N(C)c1cccc(C#N)c1 [Example 138, 4′-((6-butyl-5-((3-cyanophenyl)(methyl)amino)-2,4-dihydroxypyridin-3-yl)sulfonyl)-[1,1′-biphenyl]-2-carboxamide] |  |
| 0.01 to 10 | CCCCc1nc(O)c(S(=O)(=O)c2ccc(-c3ccccc3C(=O)N(C)C)cc2)c(O)c1N(C)c1cccc(C#N)c1 [Example 139, 4′-((6-butyl-5-((3-cyanophenyl)(methyl)amino)-2,4-dihydroxypyridin-3-yl)sulfonyl)-N,N-dimethyl-[1,1′-biphenyl]-2-carboxamide] |  |
| 0.01 to 10 | CCCCc1nc(O)c(S(=O)(=O)c2ccc(-c3ccccc3C(=O)N(C)C)cc2)c(O)c1N(CC)c1cc(C)cc(C)c1 [Example 140, 4′-((6-butyl-5-((3,5-dimethylphenyl)(ethyl)amino)-2,4-dihydroxypyridin-3-yl)sulfonyl)-N,N-dimethyl-[1,1′-biphenyl]-2-carboxamide] |  |
| 0.01 to 10 | CCN(c1ccccc1)c1c(-c2cccc(C)c2)nc(O)c(S(=O)(=O)c2ccc(-c3ccccc3C(=O)N(C)C)cc2)c1O [Example 141, 4′-((5-(ethyl(phenyl)amino)-2,4-dihydroxy-6-(m-tolyl)pyridin-3-yl)sulfonyl)-N,N-dimethyl-[1,1′-biphenyl]-2-carboxamide] |  |
| 10 to 100 | CCCCc1nc(O)c(S(=O)(=O)c2ccc(-c3ccccc3C(=O)N(C)C)cc2)c(O)c1N1CCCOc2ccccc21 [Example 142, 4′-((6-butyl-5-(3,4-dihydrobenzo[b][1,4]oxazepin-5(2H)-yl)-2,4-dihydroxypyridin-3-yl)sulfonyl)-N,N-dimethyl-[1,1′-biphenyl]-2-carboxamide] |  |
| 0.01 to 10 | CCCCc1nc(O)c(S(=O)(=O)c2ccc(-c3ccccc3C(N)=O)cc2)c(O)c1N(CC)c1cc(C)cc(C)c1 [Example 143, 4′-((6-butyl-5-((3,5-dimethylphenyl)(ethyl)amino)-2,4-dihydroxypyridin-3-yl)sulfonyl)-[1,1′-biphenyl]-2-carboxamide] |  |
| 0.01 to 10 | CCN(c1ccccc1)c1c(-c2cccc(C)c2)nc(O)c(S(=O)(=O)c2ccc(-c3ccccc3C(N)=O)cc2)c1O [Example 144, 4′-((5-(ethyl(phenyl)amino)-2,4-dihydroxy-6-(m-tolyl)pyridin-3-yl)sulfonyl)-[1,1′-biphenyl]-2-carboxamide] |  |
| 0.01 to 10 | CCN(c1ccccc1)c1c(-c2cccc(C)c2)nc(O)c(S(=O)(=O)c2ccc(-c3ccccc3C(=O)NC)cc2)c1O [Example 145, 4′-((5-(ethyl(phenyl)amino)-2,4-dihydroxy-6-(m-tolyl)pyridin-3-yl)sulfonyl)-N-methyl-[1,1′-biphenyl]-2-carboxamide] |  |
